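Values below derive from 48-hour exposures of cells grown in 96-well plates, with endpoints linearly interpolated between the two concentrations bracketing the appropriate inhibition level. At the GI50, growth is halved.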 Activity calls are given as the source filed them. No stated cut-off is given here; in the data, active = GI50 up to about 1.1 µM and inactive = higher.

This is an account of results in ChEMBL document CHEMBL1201862, “PubChem BioAssay data set” (2004).

Common to all, as to test: DTP human tumour cell line panel, 48 h
The test system of assay [1] is A498.
The subject of assay [2] is BT-549.
Assay [3] deals with COLO 205.
Assay [4] concerns DU-145.
In assay [5] the test system is HT-29.
Assay [6] has as its system Hs-578T.
Assay [7] relates to K562.
Assay [8] deals with M14.
The test system of assay [9] is MDA-N.
The subject of assay [10] is NCI-H460.
The subject of assay [11] is NCI/ADR-RES.
Assay [12] relates to OVCAR-5.
Assay [13] relates to RPMI-8226.
Assay [14] concerns SF-268.
For assay [15], the system named is SF-539.
For assay [16], the system named is SK-MEL-5.
Assay [17] concerns SNB-75.
Assay [18] relates to T47D.
Assay [19] deals with UACC-257.

The term GI50 denotes the concentration at which growth is held to half of that of the control. For the compound `COc1ccc2c(c1)/C(=C\c1c(Cl)nc3n1CCS3)C(=O)N2`, the GI50 in assay [1] is 4.89 µM (inactive); in assay [2], 6.76 µM (inactive); in [3], 3.14 µM (inactive); in assay [4], 11.8 µM (inactive); in assay [5], 3.25 µM (inactive); in [6], 11.2 µM (inactive). Further, the GI50 in assay [7] was 3.02 µM (inactive); in [8], 7.5 µM (inactive); in assay [9] it was 1.48 µM (inactive); in assay [10] it was 3.71 µM (inactive); in [11], 4.48 µM (inactive); in [12], 13.5 µM (inactive). For the same compound, the GI50 in assay [13] was 4.03 µM (inactive); in assay [14] it was 13.8 µM (inactive); in assay [15], 4.65 µM (inactive); in assay [16] it was 5.06 µM (inactive); in [17], 10.8 µM (inactive); in assay [18], 5.16 µM (inactive). Moreover, the GI50 in assay [19] was 5.48 µM (inactive).

As to `CCC12CC(c3ccccc3)C(C(=O)N1)C(=O)N2` (stereo not given), the GI50 in [1], in [2], in assay [3], in assay [4], in assay [5] and in assay [6] was > 100 µM (inactive) each time. In addition, the GI50 in assay [7], in assay [8], in assay [9], in assay [10], in assay [11] and in assay [12] was > 100 µM (inactive) each time. The GI50 in assay [13] was > 100 µM (inactive); in assay [14], > 100 µM (inactive); in [15] it was > 100 µM (inactive); in assay [16] it was > 100 µM (inactive); in assay [17] it was 65.3 µM (inactive); in assay [18] it was > 100 µM (inactive). Moreover, the GI50 in [19] was > 100 µM (inactive).

As to `NC(=S)N/N=C1\CCCCC1C(O)(C(F)(F)Cl)C(F)(F)Cl` (stereo not given), the GI50 in assay [1], in assay [2], in [3], in assay [4], in assay [5] and in assay [6] was > 10 µM (inactive) in each case. Besides, the GI50 in [7], in [8], in [9], in [10], in [11] and in assay [12] was > 10 µM (inactive) each time. For the same compound, the GI50 in [13], in [14], in [15], in assay [16], in assay [17] and in assay [18] was > 10 µM (inactive) each time. Further, the GI50 in assay [19] is > 10 µM (inactive).

Regarding `CC1(C)Cc2nc3c(cc2C(=O)C1/C=N/C(C#N)=C(\N)C#N)C(=O)C(/C=N/C(C#N)=C(\N)C#N)C(C)(C)C3` (stereo not given), the GI50 in assay [1] was 4.17 µM (inactive); in [2], 2.19 µM (inactive); in assay [3], 2.54 µM (inactive); in [4], 2.3 µM (inactive); in assay [5] it was 2.54 µM (inactive); in [6] it was 0.916 µM (active). Moreover, the GI50 in assay [7] was 3.05 µM (inactive); in assay [8] it was 1.67 µM (inactive); in [9], 2.41 µM (inactive); in assay [10], 2.61 µM (inactive); in assay [11] it was 6.47 µM (inactive); in assay [12] it was 2.34 µM (inactive). Moreover, the GI50 is 2.74 µM (inactive) in assay [13]; 1.64 µM (inactive) in [14]; 1.18 µM (inactive) in assay [15]; 2 µM (inactive) in assay [16]; 1.66 µM (inactive) in [17]; 1.32 µM (inactive) in [18]. The GI50 in [19] was 2.51 µM (inactive).

As for `COc1cccc(C2ON=C(c3ccccc3)N2C23CC4CC(CC(C4)C2)C3)c1` (stereo not given), the GI50 in assay [1], in assay [2], in [3], in [4], in assay [5] and in assay [6] was > 10 µM (inactive) throughout. Moreover, the GI50 was 8.41 µM (inactive) in assay [7]; > 10 µM (inactive) in [8]; > 10 µM (inactive) in assay [9]; > 10 µM (inactive) in [10]; > 10 µM (inactive) in [11]; > 10 µM (inactive) in [12]. For the same compound, the GI50 in assay [13] is 7.24 µM (inactive); in [14] it was > 10 µM (inactive); in [15] it was > 10 µM (inactive); in assay [16] it was > 10 µM (inactive); in assay [17], 8.91 µM (inactive); in [18], > 10 µM (inactive). For the same compound, the GI50 in assay [19] is > 10 µM (inactive).

As for `Cc1cc(C)c2c(=O)n(CC(O)CN3CCN(c4ncccn4)CC3)sc2n1` (stereo not given), the GI50 in [1] was 17.4 µM (inactive); in [2], 18.4 µM (inactive); in [3], 19 µM (inactive); in [4], 16.6 µM (inactive); in assay [5], 16.1 µM (inactive); in assay [6], 21.4 µM (inactive). The GI50 was 22.3 µM (inactive) in assay [7]; 15.7 µM (inactive) in assay [8]; 16 µM (inactive) in [9]; 17.5 µM (inactive) in assay [10]; 31 µM (inactive) in assay [11]; 16.5 µM (inactive) in [12]. Besides, the GI50 is 4.71 µM (inactive) in assay [13]; 18.6 µM (inactive) in [14]; 17.8 µM (inactive) in [15]; 20.5 µM (inactive) in [16]; 15.1 µM (inactive) in assay [17]; 23.4 µM (inactive) in [18]. The GI50 in assay [19] was 16.7 µM (inactive).

Turning to `COc1ccc(C(Nc2ncccn2)c2cc3c(cc2O)OCO3)cc1` (stereo not given), the GI50 in [1] is 46.5 µM (inactive); in [2] it was 23 µM (inactive); in assay [3], 26.6 µM (inactive); in [4], 20.5 µM (inactive); in assay [5], 24.8 µM (inactive); in [6], 23.4 µM (inactive). Also, the GI50 in assay [7] was 23.1 µM (inactive); in assay [8], 20.6 µM (inactive); in [9], 18.3 µM (inactive); in assay [10] it was 20.1 µM (inactive); in [11] it was 30.8 µM (inactive); in [12], 31.8 µM (inactive). Further, the GI50 in assay [13] was 22.8 µM (inactive); in [14], 17.3 µM (inactive); in assay [15], 15.2 µM (inactive); in assay [16], 20.4 µM (inactive); in assay [17], 10.2 µM (inactive); in assay [18], 13.3 µM (inactive). Also, the GI50 in [19] is 18.9 µM (inactive).

Turning to `COc1ccc(/C=C/C2=NN(c3cccc(S(=O)(=O)O)c3)C3(C2)SCC(=O)N3c2nc3ccccc3s2)cc1` (stereo not given), the GI50 was 57 µM (inactive) in assay [1]; 56.1 µM (inactive) in [2]; > 100 µM (inactive) in assay [3]; 66.5 µM (inactive) in [4]; > 100 µM (inactive) in assay [5]; > 100 µM (inactive) in assay [6]. The GI50 in [7] is 31.3 µM (inactive); in [8], > 100 µM (inactive); in assay [9] it was > 100 µM (inactive); in assay [10], 50.7 µM (inactive); in assay [11], 59 µM (inactive); in assay [12], > 100 µM (inactive). The GI50 in assay [13] is 22.8 µM (inactive); in assay [14], 98.6 µM (inactive); in [15], 33.2 µM (inactive); in [16], 58.9 µM (inactive); in assay [17] it was > 100 µM (inactive); in assay [18] it was 16.5 µM (inactive). Further, the GI50 in assay [19] is 83.8 µM (inactive).

Turning to `CCOC(=O)CO/N=C1/C(=C2/C(=O)Nc3ccccc32)Nc2ccccc21`, the GI50 in assay [1] was 15.1 µM (inactive); in assay [2] it was 78.3 µM (inactive); in [3], > 100 µM (inactive); in assay [4] it was > 100 µM (inactive); in [5], > 100 µM (inactive); in assay [6], 36.2 µM (inactive). The GI50 in [7], in assay [8], in [9], in assay [10], in assay [11] and in assay [12] was > 100 µM (inactive) in each case. For the same compound, the GI50 is > 100 µM (inactive) in assay [13]; 27 µM (inactive) in assay [14]; 41.1 µM (inactive) in assay [15]; 49.5 µM (inactive) in assay [16]; 3.39 µM (inactive) in [17]; 2.29 µM (inactive) in assay [18]. The GI50 in [19] is > 100 µM (inactive).

Turning to `COc1cccc(-c2cc(O)c3cc(Cl)cnc3n2)c1`, the GI50 was 0.131 µM (active) in assay [1]; 2.17 µM (inactive) in assay [2]; 0.113 µM (active) in [3]; 0.358 µM (active) in [4]; 0.0908 µM (active) in assay [5]; 0.0743 µM (active) in [6]. The GI50 was 0.0419 µM (active) in assay [7]; 0.0443 µM (active) in assay [8]; 0.0144 µM (active) in assay [9]; 0.0783 µM (active) in assay [10]; 0.0341 µM (active) in assay [11]; 1.33 µM (inactive) in [12]. Besides, the 50% growth inhibitory concentration (GI50) is 0.0378 µM (active) in [13]; 0.165 µM (active) in assay [14]; 0.0348 µM (active) in assay [15]; 0.0495 µM (active) in [16]; 33.5 µM (inactive) in assay [17]; 30.5 µM (inactive) in assay [18]. Further, the GI50 in [19] is 6.92 µM (inactive).
